Legend:
Cannabinoid receptor 1 = Cannabinoid receptor 1 (Rattus norvegicus, UniProt P20272); assay: Displacement of [3H]CP-55940 from CB1 receptor in Sprague-Dawley rat brain cortex membranes; assay type: cell membranes, Membrane
Cannabinoid receptor 2 = Cannabinoid receptor 2 (Homo sapiens, UniProt P34972); assay: Displacement of [3H]CP-55940 from human CB2 receptor expressed in CHO cells after 1 hr by liquid scintillation spectrometry analysis; assay type: cell-based
Cannabinoid receptor 2, sequence (P34972 whole entry): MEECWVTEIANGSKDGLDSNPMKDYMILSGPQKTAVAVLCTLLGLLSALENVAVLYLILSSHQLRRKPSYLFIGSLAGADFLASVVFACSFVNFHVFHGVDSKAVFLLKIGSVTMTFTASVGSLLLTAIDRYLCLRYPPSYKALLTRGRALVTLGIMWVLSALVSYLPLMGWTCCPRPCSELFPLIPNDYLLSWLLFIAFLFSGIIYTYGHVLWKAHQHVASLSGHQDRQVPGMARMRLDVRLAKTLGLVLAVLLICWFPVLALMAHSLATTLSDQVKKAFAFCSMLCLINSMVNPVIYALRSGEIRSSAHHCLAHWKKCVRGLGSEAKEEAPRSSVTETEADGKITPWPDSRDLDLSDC

Cannabinoid receptor 1, sequence (P20272 whole entry): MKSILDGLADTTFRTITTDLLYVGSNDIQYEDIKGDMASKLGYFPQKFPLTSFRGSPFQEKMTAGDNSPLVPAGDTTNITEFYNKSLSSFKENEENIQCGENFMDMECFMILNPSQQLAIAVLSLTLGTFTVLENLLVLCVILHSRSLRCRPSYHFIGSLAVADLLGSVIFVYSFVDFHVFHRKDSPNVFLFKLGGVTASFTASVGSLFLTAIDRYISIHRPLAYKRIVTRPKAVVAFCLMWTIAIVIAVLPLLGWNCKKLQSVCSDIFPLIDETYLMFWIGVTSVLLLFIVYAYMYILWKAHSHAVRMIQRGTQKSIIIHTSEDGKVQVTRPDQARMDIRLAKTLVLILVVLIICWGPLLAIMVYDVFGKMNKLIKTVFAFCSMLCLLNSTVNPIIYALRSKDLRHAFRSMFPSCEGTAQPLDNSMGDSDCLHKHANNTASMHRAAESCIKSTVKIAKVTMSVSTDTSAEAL

| Structure (SMILES) | Ki (Cannabinoid receptor 1) [nM] | Ki (Cannabinoid receptor 2) [nM] |
| --- | --- | --- |
| CCCCCCC(C)(C)c1ccc([C@H]2CCC[C@@H](O)C2)c(O)c1 | 9.54 |  |
| CCCCCCC(C)(C)c1ccc([C@H]2CCC[C@@H](O)C2)c(OC)c1 (relative stereo) | > 10000 | 808 |
| CCCCCC(C)(C)c1ccc([C@H]2CCC[C@H](O)C2)c(OC)c1 (relative stereo) | 4120 | 693 |
| CCCCCCC(C)(C)c1ccc([C@H]2CCC[C@H](O)C2)cc1 (relative stereo) | 645 | 178 |
| CCCCCC(C)(C)c1ccc([C@H]2CCC[C@@H](O)C2)c(OC)c1 (relative stereo) | 4410 | 553 |
